Assay results published in ChEMBL document CHEMBL1201862, “PubChem BioAssay data set” (2004).
Active and inactive are the calls of the source.

Assays:
Beta-galactosidase = Beta-galactosidase (Escherichia coli, UniProt Q8VNN2); experiment: PubChem AID 485352; format: functional
[1] = target: T1, Type-1 angiotensin II receptor (Homo sapiens, UniProt P30556); experiment: antagonism of angiotensin II type 1 receptor – cell-based, uHTS hits, selectivity assay for APJ receptor antagonist project, dose response (AID 463214); format: functional;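 note: antagonist potency against angiotensin II stimulated AT1 response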
T1 sequence (P30556 whole entry): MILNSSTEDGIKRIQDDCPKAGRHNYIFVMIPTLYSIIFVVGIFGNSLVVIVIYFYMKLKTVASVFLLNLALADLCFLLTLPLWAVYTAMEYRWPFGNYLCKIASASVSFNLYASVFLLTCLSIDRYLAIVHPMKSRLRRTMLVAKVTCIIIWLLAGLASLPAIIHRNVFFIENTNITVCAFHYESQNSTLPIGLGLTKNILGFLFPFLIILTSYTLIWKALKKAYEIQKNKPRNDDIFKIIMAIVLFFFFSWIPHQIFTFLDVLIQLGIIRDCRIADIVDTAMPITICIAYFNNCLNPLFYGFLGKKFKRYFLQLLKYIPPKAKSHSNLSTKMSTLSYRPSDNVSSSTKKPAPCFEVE

CHO-K1 = experiment: Counterscreen for antagonists of the orexin 1 receptor (OX1R; HCRTR1): Homogeneous time resolved fluorescence (HTRF)-based cell-based dose response assay to identify antagonists of the parental CHO-K1 cell line. [Related pubchem assays (depositor defined):AID434989, AID435008, AID463079, AID485270, AID492963, AID492964, AID492965, AID493232, AID504699, AID504701]; format: functional; details: Cricetulus griseus;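 note: potency for inhibition of ATP-stimulated IP1 production as antagonists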
[2] = Counterscreen for antagonists of the orexin 1 receptor (OX1R; HCRTR1): Fluorescence-based cell-based high throughput dose response assay to identify antagonists of the parental CHO cell line. [Related pubchem assays (depositor defined):AID434989, AID435008, AID463079, AID485270, AID492963, AID492964, AID492965, AID493232, AID504699, AID504701]; format: functional
[3] = target: T2, Orexin/Hypocretin receptor type 1 (Homo sapiens, UniProt O43613); experiment: Homogeneous Time Resolved Fluorescence (HTRF)-based cell-based high throughput dose response assay for antagonists of the orexin 1 receptor (OX1R; HCRTR1). [Related pubchem assays (depositor defined):AID434989, AID435008, AID463079, AID485270, AID492963, AID492964, AID492965, AID493232, AID504717, AID504718]; format: functional
T2 sequence (O43613 whole entry): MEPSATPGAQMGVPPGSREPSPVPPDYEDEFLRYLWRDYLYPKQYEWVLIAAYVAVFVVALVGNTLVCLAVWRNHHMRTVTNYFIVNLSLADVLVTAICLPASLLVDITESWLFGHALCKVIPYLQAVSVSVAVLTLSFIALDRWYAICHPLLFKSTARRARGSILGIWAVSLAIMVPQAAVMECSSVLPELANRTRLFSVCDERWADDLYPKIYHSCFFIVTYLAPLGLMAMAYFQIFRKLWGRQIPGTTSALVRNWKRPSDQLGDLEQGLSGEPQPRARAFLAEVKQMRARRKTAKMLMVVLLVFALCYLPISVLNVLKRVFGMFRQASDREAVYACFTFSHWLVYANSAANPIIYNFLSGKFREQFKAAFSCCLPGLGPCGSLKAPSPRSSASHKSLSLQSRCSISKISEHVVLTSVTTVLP

[4] = target: T2, Orexin/Hypocretin receptor type 1; experiment: Fluorescence-based cell-based high throughput dose response assay for antagonists of the orexin 1 receptor (OX1R; HCRTR1). [Related pubchem assays (depositor defined):AID434989, AID435008, AID463079, AID485270, AID492963, AID492964, AID492965, AID493232, AID504717, AID504718]; format: functional
Orexin receptor type 2 [5] = target: T3, Orexin receptor type 2 (Homo sapiens, UniProt O43614); experiment: Counterscreen assay for antagonists of the orexin 1 receptor (OX1R; HCRTR1): Fluorescence-based cell-based dose response assay for antagonists of the orexin 2 receptor (OX2R; HCRTR2), run by assay provider.; format: functional
T3 sequence (O43614 whole entry): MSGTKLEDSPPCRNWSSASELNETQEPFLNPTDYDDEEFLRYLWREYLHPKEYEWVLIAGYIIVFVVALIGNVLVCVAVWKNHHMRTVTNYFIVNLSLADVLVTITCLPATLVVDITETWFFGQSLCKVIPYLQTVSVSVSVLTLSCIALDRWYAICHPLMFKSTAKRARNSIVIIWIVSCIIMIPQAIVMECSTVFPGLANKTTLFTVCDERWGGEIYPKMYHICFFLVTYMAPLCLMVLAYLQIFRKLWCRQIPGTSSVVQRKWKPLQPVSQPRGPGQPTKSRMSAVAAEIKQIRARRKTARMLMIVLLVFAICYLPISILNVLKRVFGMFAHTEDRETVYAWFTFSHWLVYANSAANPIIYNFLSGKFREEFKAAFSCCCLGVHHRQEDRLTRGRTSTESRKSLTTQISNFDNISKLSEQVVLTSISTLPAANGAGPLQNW

Orexin receptor type 2 [6] = target: T3, Orexin receptor type 2; experiment: Counterscreen assay for antagonists of the orexin 1 receptor (OX1R; HCRTR1): Homogeneous Time Resolved Fluorescence (HTRF)-based cell-based dose response assay for antagonists of the orexin 2 receptor (OX2R; HCRTR2), run by assay provider.; format: functional
[7] = target: T4, Apoptotic protease-activating factor 1 (Homo sapiens, UniProt O14727); experiment: SAR analysis of small molecule Activators of Apaf-1 in a Fluorescent assay.; format: functional; details: read-out: EC50_Mean;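 note: caspase-3 cleavage of fluorogenic Rh110 DEVD substrate downstream of apoptosome activation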
T4 sequence (O14727 whole entry): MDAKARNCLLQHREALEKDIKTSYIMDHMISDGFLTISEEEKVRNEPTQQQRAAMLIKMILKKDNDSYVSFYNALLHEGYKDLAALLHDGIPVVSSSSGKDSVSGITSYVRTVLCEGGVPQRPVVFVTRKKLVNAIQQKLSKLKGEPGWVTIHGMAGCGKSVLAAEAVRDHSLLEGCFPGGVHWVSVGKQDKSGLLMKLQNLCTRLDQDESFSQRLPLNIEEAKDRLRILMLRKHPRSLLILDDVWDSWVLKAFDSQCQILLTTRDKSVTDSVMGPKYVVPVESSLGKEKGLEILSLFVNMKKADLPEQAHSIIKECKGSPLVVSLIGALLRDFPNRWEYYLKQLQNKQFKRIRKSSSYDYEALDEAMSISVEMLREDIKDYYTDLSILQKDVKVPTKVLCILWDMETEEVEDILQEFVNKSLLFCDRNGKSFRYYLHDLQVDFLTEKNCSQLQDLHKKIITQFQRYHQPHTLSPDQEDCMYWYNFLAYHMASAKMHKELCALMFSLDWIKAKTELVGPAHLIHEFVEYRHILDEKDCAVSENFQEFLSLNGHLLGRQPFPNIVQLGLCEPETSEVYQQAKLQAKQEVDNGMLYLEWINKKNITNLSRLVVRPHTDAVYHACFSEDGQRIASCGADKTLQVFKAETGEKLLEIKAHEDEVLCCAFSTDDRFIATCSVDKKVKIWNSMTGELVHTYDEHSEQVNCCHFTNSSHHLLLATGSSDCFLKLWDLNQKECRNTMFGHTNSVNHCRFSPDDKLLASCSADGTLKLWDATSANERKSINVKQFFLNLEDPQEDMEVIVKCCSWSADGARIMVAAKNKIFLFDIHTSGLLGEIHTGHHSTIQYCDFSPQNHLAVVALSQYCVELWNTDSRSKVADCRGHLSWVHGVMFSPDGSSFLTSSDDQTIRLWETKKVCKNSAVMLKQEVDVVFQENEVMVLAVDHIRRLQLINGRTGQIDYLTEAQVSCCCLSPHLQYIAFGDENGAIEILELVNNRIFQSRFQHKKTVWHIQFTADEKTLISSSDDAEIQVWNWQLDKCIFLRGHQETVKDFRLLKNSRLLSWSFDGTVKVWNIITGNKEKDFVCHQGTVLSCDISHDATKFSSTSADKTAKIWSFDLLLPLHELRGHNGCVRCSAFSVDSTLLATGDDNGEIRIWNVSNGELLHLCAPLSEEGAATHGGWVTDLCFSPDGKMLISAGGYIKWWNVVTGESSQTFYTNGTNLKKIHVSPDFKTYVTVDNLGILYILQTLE

[8] = luciferase reporter signal suppression in cells – H4 neuroglioma cells, luminescence, dose response (AID 1990); format: functional, cell-based
[9] = Luminescence Cell-Based Dose Response HTS to Identify Inhibitors of 5'UTR Stem-Loop Driven Prion Protein mRNA Translation in H4 Neuroglioblastoma Cells. [Related pubchem assays: 1827 (Project Summary), 1813 (Primary HTS)]; format: functional
[10] = alpha-synuclein stem-loop luciferase translation blockers – H4 neuroglioma cells, luminescence, confirmation (AID 1988); format: functional, cell-based
Cytochrome P450 2C19 = Cytochrome P450 2C19 (Homo sapiens, UniProt P33261); experiment: Cytochrome panel assay with activity outcomes. Panel member name: p450-cyp2c19 Compounds with AC50 equal or less than 10 uM are considered active; format: functional; details: read-out: AC50
[11] = target: Ras and Rab interactor 1/Tyrosine-protein kinase ABL1 (Homo sapiens, UniProt P00519+Q13671); format: functional;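 note: biochemical TR-FRET dose-response test measuring inhibition of binding between Rin1 and Abl proteins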
[12] = activation of miR-122 Renilla sensor silencing – cell-based, Huh7 psiCHECK-miR122, Renilla luciferase, cherry-picked, dose response (AID 651956); format: functional;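 note: huh7 hepatoma cells stably carrying a psiCHECK-2 miR-122 sensor plasmid; renilla luciferase signal reporting endogenous miR-122 activity after 48 h compound exposure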
Cytochrome P450 2C9 = Cytochrome P450 2C9 (Homo sapiens, UniProt P11712)
[13] = target: Luciferin 4-monooxygenase (Photinus pyralis, UniProt P08659); experiment: inhibition of purified Photinus pyralis luciferase – biochemical, luminescence, dose response (AID 1891)
[14] = Luminescence Cell-Based Dose Confirmation HTS to Identify Inhibitors of Platelet Dense Granule Release. [Related pubchem assays: 1663 (Primary HTS), 1678 (Summary of Project)]; format: functional
HEK293 = experiment: EBV LMP1 TES2 canonical NF-kB signalling blockers – cell-based, HEK293, luciferase, cherry-pick, dose response (AID 588343); format: functional; details: Homo sapiens
[15] = inhibition of ARNT PAS-B/TACC3 complex formation – biochemical, AlphaScreen, cherry-picked samples, confirmation (AID 651703); format: functional, Homo sapiens;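 note: His-tagged ARNT PAS-B domain paired with GST-TACC3 E629A dimer coactivator fragment; potency of inhibitors that break up the complex and lower AlphaScreen signal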
[16] = A549 cell cytotoxicity, dose response, cytotoxicity control, plate reader, cherry-pick, antagonist series (AID 743412); format: functional, cell-based
[17] = toxicity toward HepG2 liver cells – cell-based, plate reader, cherry-pick, antagonist series, cytotoxicity control, dose response (AID 743416); format: functional
[18] = blockers of bursicon-stimulated LGR2 cAMP reporter – cell-based, HEK293, CRE-luciferase reporter, cherry pick, set 2, dose response (AID 743343); format: functional;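 note: transfected cells were stimulated with diluted bursicon conditioned medium after compound addition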
[19] = blockade of melanocortin 4 receptor signaling – cell-based, plate reader, cherry pick, counter-screen for LGR2 antagonist project, dose response (AID 743444); format: functional;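 note: transfected HEK 293 cells stimulated with alpha-MSH peptide; potency of inhibitors of the alpha-MSH evoked signal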
[20] = viability loss in HEK293 cells – cell-based, plate reader, cherry-picked samples, cytotoxicity control, dose response (AID 743446); format: functional
Large T antigen = Large T antigen (Simian virus 40, UniProt P03070); format: functional, Betapolyomavirus macacae;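 note: Confirmatory-stage PubChem screen for compounds that inhibit SV40 T antigen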
[21] = target: T5, Mitochondrial peptide methionine sulfoxide reductase (Bos taurus, UniProt P54149); experiment: Absorbance-based biochemical high throughput dose response assay for activators of Methionine sulfoxide reductase A (MsrA).; format: functional
T5 sequence (P54149 whole entry): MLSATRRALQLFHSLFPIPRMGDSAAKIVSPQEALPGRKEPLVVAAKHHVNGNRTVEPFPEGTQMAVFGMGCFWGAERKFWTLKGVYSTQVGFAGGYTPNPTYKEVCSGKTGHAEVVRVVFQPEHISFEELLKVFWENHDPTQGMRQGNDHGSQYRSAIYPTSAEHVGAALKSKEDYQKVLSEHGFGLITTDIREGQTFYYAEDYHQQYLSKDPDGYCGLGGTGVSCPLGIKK

Chain of Ras and Rab interactor 1/Tyrosine-protein kinase ABL1 (P00519 whole entry): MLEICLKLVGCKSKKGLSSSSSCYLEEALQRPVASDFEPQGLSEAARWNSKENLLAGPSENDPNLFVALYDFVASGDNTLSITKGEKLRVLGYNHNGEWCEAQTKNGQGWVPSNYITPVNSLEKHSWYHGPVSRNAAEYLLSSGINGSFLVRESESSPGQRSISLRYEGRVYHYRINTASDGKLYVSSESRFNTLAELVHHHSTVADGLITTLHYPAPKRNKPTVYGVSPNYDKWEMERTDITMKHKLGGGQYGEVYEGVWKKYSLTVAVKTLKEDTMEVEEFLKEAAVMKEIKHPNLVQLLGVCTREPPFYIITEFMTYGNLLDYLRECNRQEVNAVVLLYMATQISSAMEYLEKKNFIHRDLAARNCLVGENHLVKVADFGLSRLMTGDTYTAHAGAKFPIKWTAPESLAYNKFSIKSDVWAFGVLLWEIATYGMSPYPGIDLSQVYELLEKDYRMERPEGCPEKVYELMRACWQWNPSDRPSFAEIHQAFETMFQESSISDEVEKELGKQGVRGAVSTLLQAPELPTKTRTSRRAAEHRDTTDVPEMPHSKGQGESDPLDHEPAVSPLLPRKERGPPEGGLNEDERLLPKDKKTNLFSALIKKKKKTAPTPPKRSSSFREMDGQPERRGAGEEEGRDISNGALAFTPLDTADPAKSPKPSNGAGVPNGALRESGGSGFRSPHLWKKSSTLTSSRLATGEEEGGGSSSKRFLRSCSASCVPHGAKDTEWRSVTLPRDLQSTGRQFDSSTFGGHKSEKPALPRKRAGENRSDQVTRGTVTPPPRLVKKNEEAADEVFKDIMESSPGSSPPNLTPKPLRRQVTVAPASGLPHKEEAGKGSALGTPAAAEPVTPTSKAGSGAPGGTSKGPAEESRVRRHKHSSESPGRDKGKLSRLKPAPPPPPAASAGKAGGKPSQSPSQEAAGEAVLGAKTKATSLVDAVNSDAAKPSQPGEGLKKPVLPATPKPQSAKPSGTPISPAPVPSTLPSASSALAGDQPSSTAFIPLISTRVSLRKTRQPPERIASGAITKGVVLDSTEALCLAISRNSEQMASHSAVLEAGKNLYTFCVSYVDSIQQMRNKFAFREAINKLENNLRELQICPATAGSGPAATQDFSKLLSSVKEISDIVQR
Chain of Ras and Rab interactor 1/Tyrosine-protein kinase ABL1 (Q13671 whole entry): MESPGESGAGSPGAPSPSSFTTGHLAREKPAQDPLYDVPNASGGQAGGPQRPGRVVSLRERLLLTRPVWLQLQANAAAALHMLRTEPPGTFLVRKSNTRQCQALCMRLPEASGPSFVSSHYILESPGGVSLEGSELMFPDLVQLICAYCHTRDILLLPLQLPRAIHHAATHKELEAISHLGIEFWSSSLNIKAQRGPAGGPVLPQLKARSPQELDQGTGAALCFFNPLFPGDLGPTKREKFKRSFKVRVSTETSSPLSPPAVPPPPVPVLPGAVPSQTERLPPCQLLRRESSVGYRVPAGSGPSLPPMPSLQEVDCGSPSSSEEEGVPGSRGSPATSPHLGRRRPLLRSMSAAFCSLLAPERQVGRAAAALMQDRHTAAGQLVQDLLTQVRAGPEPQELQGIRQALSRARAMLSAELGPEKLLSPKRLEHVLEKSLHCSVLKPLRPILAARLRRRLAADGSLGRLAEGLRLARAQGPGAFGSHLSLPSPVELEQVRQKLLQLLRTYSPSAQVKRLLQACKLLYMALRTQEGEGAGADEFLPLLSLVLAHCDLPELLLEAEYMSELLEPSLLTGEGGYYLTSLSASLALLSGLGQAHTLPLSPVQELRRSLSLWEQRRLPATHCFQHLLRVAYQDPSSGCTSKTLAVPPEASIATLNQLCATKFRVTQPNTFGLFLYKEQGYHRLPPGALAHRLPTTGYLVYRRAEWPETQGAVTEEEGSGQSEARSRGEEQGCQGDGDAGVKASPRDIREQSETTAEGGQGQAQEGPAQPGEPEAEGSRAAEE
Chain of Luciferin 4-monooxygenase (P08659 whole entry): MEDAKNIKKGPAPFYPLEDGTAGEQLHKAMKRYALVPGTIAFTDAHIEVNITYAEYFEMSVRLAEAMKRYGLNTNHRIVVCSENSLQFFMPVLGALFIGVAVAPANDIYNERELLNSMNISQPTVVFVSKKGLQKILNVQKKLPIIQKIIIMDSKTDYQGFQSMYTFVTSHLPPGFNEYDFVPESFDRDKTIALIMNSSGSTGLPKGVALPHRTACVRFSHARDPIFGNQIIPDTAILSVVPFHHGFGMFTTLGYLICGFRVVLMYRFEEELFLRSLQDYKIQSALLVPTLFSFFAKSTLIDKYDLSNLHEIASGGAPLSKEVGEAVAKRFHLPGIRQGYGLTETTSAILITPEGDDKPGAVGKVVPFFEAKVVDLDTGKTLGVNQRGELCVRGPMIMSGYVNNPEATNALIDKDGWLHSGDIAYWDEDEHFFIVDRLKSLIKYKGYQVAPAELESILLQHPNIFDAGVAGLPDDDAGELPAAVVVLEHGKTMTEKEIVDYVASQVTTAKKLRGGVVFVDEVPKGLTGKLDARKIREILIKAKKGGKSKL
Chain of Cytochrome P450 2C19 (P33261 whole entry): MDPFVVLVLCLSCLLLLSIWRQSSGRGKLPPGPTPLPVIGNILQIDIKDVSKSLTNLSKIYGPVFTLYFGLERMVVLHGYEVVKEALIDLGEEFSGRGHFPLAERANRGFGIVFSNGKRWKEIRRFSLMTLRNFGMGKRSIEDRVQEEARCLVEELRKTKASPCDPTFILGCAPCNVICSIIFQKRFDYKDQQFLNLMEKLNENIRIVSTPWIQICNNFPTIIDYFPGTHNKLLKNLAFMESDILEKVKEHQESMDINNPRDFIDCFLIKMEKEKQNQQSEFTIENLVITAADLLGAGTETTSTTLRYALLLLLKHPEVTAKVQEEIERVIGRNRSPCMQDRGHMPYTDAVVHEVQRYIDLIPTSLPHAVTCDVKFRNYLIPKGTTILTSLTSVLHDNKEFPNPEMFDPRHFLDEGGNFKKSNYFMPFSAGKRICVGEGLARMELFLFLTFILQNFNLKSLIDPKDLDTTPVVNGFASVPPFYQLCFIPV
Chain of Beta-galactosidase (Q8VNN2 whole entry): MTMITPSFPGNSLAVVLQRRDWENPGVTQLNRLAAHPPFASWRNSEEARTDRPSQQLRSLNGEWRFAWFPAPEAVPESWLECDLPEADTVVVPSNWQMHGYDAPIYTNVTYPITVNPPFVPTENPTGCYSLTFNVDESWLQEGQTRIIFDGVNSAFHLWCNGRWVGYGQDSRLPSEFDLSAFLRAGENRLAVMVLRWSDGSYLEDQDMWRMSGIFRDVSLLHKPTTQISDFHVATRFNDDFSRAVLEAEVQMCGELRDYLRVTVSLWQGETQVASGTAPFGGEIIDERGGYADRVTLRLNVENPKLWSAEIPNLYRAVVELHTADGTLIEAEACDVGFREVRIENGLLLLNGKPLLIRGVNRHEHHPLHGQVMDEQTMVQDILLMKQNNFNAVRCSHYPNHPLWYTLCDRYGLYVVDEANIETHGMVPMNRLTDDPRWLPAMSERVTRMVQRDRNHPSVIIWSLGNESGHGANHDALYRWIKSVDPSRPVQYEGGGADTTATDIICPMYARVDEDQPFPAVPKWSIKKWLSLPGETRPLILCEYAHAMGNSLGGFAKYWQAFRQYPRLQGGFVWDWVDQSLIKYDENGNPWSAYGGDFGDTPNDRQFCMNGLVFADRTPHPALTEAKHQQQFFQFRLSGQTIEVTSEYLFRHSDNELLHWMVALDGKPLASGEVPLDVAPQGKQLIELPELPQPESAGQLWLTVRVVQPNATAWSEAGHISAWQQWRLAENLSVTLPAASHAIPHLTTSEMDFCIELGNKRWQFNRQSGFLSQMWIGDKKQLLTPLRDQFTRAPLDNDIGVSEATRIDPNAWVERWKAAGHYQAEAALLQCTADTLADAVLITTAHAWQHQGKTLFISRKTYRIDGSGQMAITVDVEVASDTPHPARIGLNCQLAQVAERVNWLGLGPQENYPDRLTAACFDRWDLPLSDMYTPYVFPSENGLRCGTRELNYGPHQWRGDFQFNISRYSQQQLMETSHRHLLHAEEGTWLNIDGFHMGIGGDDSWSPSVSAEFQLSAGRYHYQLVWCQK
Chain of Cytochrome P450 2C9 (P11712 whole entry): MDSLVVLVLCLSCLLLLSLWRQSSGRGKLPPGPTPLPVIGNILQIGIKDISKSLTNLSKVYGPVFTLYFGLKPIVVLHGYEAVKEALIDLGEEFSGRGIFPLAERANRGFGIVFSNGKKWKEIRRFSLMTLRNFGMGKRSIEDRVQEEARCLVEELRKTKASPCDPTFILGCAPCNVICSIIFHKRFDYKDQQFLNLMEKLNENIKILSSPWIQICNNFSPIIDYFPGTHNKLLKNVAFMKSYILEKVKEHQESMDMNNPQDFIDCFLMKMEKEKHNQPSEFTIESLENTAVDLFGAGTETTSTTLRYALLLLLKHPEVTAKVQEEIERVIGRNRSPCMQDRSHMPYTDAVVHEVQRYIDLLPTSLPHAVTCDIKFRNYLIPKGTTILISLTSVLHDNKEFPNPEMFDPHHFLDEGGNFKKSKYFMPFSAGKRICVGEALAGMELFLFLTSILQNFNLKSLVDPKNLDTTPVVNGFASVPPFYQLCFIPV

SMILES: CN(/N=C/c1cc([N+](=O)[O-])ccc1O)c1ccccc1
- EC50 (Beta-galactosidase): > 40 µM (inactive)
- IC50 [1]: > 40 µM (not active)
- IC50 (CHO-K1): > 66.2 µM (inactive)
- IC50 [2]: > 49.7 µM (inactive)
- IC50 [3]: 2.39 µM (active)
- IC50 [4]: 2.48 µM (active)
- IC50 (Orexin receptor type 2 [5]): > 88.8 µM (inactive)
- IC50 (Orexin receptor type 2 [6]): > 50 µM (inactive)

SMILES: COC(=O)c1coc(-c2ccc(Cl)cc2)n1
- EC50 [7]: > 100 µM (inactive)

SMILES: CN(C)CCNc1ncnc2c1sc1nc(N3CCOCC3)c3c(c12)CC(C)(C)SC3
- EC50 [8]: 8.43 µM (active)
- EC50 [9]: 23.9 µM (active)
- EC50 [10]: 8.17 µM (active)
- AC50 (Cytochrome P450 2C19): 31.6 µM (inconclusive)
- IC50 [11]: 13.7 µM (inactive)
- AC50 [12]: 12.9 µM (active)
- AC50 (Cytochrome P450 2C9): 25.1 µM (inconclusive)

SMILES: CN(C)/C=C1/Oc2c(ccc3ccccc23)C1=O
- IC50 (CHO-K1): > 66.2 µM (inactive)
- IC50 [2]: > 49.7 µM (inactive)
- IC50 [3]: 2.06 µM (active)
- IC50 [4]: 33.3 µM (inactive)
- IC50 (Orexin receptor type 2 [5]): > 88.8 µM (inactive)
- IC50 (Orexin receptor type 2 [6]): 18.3 µM (inactive)

SMILES: Cc1ccc2[nH]c(-c3ccccn3)nc2c1
- EC50 [13]: 2.78 µM (active)
- EC50 [14]: 14.7 µM (active)
- AC50 (HEK293): 3.34 µM (active)
- AC50 [15]: 76 µM (active)
- AC50 [16]: 27.3 µM (active)
- AC50 [17]: 34.3 µM (active)
- AC50 [18]: 5.45 µM (active)
- AC50 [19]: 6.67 µM (active)
- AC50 [20]: > 52 µM (inactive)

SMILES: O=C(O)c1coc(-c2ccc(Cl)cc2)n1
- EC50 [7]: > 100 µM (inactive)

SMILES: COCCCn1c(=O)c2ccccc2n2c(S)nnc12
- IC50 (Large T antigen): 9.15 µM (active)
- EC50 [21]: > 104 µM (inactive)

SMILES: CC(C)n1cc(CN2CCC(C(=O)Nc3cccc(-c4cscn4)c3)CC2)cn1
- IC50 [11]: 54.5 µM (inactive)
